Results from article PMC11589570, “Critical assessment of LC3/GABARAP ligands used for degrader development and ligandability of LC3/GABARAP binding pockets” (Nature Communications, 2024).
Where “and” joins values, the source holds several entries; their conditions need not be identical. Equal values may be shown once.

What was measured:
Assay in all cases: FP assay with Cy5-labelled p62 LIR tracer (protein titration and tracer displacement)
Format in all cases: binding
GABARAP = GABARAP (Homo sapiens, UniProt O95166); details: two replicate columns per compound
GABARAPL1 = GABARAPL1 (Homo sapiens, UniProt Q9H0R8); details: for compound titration GABARAPL1 (displacement curve, FP signal): two replicate columns per compound; for FP tracer displacement curve signal (compound titration): duplicate values, listed as KT3
LC3B = LC3B (Homo sapiens, UniProt Q9GZQ8); details: for normalized FP signal, p62 LIR tracer displacement: LC3B; for compound titration LC3B (displacement curve, FP signal): two replicate columns per compound
LC3C = LC3C (Homo sapiens, UniProt Q9BXW4); details: two replicate columns per compound
LC3A = LC3A (Homo sapiens, UniProt Q9H492); details: two replicate columns per compound
[1] = log10 concentration [M] -3.82391
[2] = log10 concentration [M] -4.1549
[3] = log10 concentration [M] -4.60206
[4] = log10 concentration [M] -5.30103
[5] = log10 concentration [M] -5.69897
[6] = log10 concentration [M] -6.22185
[7] = log10 concentration [M] -6.69897
[8] = log10 concentration [M] -7.30103
[9] = log10 concentration [M] -7.79588
[10] = log10 concentration [M] -8.08092

Chain of LC3C (Q9BXW4 1-126): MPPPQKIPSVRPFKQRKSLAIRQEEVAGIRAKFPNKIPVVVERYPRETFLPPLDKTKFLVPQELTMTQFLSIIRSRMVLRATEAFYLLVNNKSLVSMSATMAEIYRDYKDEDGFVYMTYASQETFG
Chain of GABARAP (O95166 1-116): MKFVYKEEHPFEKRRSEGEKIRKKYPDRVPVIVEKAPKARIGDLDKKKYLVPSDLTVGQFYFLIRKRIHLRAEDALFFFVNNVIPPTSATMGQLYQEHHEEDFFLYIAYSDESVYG
Chain of GABARAPL1 (Q9H0R8 whole entry): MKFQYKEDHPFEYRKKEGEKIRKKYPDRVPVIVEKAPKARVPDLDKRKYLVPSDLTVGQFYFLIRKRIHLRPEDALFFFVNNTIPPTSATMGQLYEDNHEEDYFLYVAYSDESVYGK

In the case of `Cc1ccc(S(=O)(=O)Nc2cc(SCC(=O)O)c(O)c3ccccc23)c(C)c1` [compound 10], the “compound titration GABARAP (displacement curve, FP signal)” value (GABARAP; [1]) is reported as 16.2069 and 14.4828, the “compound titration GABARAP (displacement curve, FP signal)” value (GABARAP; [2]) is reported as 54.3103 and 56.3793 and the “compound titration GABARAP (displacement curve, FP signal)” value (GABARAP; [3]) is reported as 99.3103 and 96.0345. The “compound titration GABARAP (displacement curve, FP signal)” value (GABARAP; log10 concentration [M] -5) was 94.4828 and 101.034, the “compound titration GABARAP (displacement curve, FP signal)” value (GABARAP; [4]) was 97.931 and 100.345 and the “compound titration GABARAP (displacement curve, FP signal)” value (GABARAP; [5]) was 88.6207 and 93.1034. For the same compound, the “compound titration GABARAP (displacement curve, FP signal)” value (GABARAP; [6]) was 93.9655 and 97.069, the “compound titration GABARAP (displacement curve, FP signal)” value (GABARAP; [7]) was 96.7241 and 100.862 and the “compound titration GABARAP (displacement curve, FP signal)” value (GABARAP; [8]) was 95.5172 and 99.1379. The “compound titration GABARAP (displacement curve, FP signal)” value (GABARAP; [9]) was 95.6897 and 96.8966, the “compound titration GABARAP (displacement curve, FP signal)” value (GABARAP; [10]) was 97.7586 and 100.69 and the “compound titration GABARAPL1 (displacement curve, FP signal)” value (from here on “compound titration GABARAPL1”) (GABARAPL1; [1]) was 17.7143 and 20.8571. The “compound titration GABARAPL1” value (GABARAPL1; [2]) was 50 and 53.2857, the “compound titration GABARAPL1” value (GABARAPL1; [3]) was 99.5714 and 102.429 and the “compound titration GABARAPL1” value (GABARAPL1; log10 concentration [M] -5) was 98.1429 and 100.714. The “FP tracer displacement curve signal (compound titration)” value (“FP tracer displacement curve signal” below) (GABARAPL1; [5]) was 94.7143 and 94.1429, the “FP tracer displacement curve signal” value (GABARAPL1; [6]) was 100 and 100.429 and the “FP tracer displacement curve signal” value (GABARAPL1; [7]) was 100.857 and 101.429. For the same compound, the “FP tracer displacement curve signal” value (GABARAPL1; [8]) was 101.857 and 99.1429, the “FP tracer displacement curve signal” value (GABARAPL1; [9]) was 100 and 94.7143 and the “FP tracer displacement curve signal” value (GABARAPL1; [10]) was 101.714 and 99.2857. The “normalized FP signal, p62 LIR tracer displacement” value (shortened to “normalized FP signal”) (LC3B; [1]) was 54.7368 and 57.3684, the “normalized FP signal” value (LC3B; [2]) was 91.8421 and 94.4737 and the “normalized FP signal” value (LC3B; [3]) was 99.4737 and 97.8947. For the same compound, the “normalized FP signal” value (LC3B; log10 concentration [M] -5) was 98.6842 and 95, the “normalized FP signal” value (LC3B; [4]) was 95 and 96.0526 and the “normalized FP signal” value (LC3B; [5]) was 96.5789 and 95.2632. For the same compound, the “normalized FP signal” value (LC3B; [6]) was 93.4211 and 99.4737, the “normalized FP signal” value (LC3B; [7]) was 97.3684 and 96.8421 and the “normalized FP signal” value (LC3B; [8]) was 102.368 and 100.789. The “normalized FP signal” value (LC3B; [9]) was 96.3158 and 98.1579, the “normalized FP signal” value (LC3B; [10]) was 102.632 and 92.6316 and the “compound titration LC3B (displacement curve, FP signal)” value (“compound titration LC3B” below) (LC3B; [1]) was 54.7368 and 57.3684. For the same compound, the “compound titration LC3B” value (LC3B; [2]) was 91.8421 and 94.4737, the “compound titration LC3B” value (LC3B; [3]) was 99.4737 and 97.8947 and the “compound titration LC3B” value (LC3B; log10 concentration [M] -5) was 98.6842 and 95. For the same compound, the “compound titration LC3B” value (LC3B; [4]) was 95 and 96.0526, the “compound titration LC3B” value (LC3B; [5]) was 96.5789 and 95.2632 and the “compound titration LC3B” value (LC3B; [6]) was 93.4211 and 99.4737. For the same compound, the “compound titration LC3B” value (LC3B; [7]) was 97.3684 and 96.8421, the “compound titration LC3B” value (LC3B; [8]) was 102.368 and 100.789 and the “compound titration LC3B” value (LC3B; [9]) was 96.3158 and 98.1579. For the same compound, the “compound titration LC3B” value (LC3B; [10]) was 102.632 and 92.6316, the “compound titration LC3C (displacement curve, FP signal)” value (shortened to “compound titration LC3C”) (LC3C; [1]) was 22.4 and 20.2 and the “compound titration LC3C” value (LC3C; [2]) was 56.4 and 57.6. For the same compound, the “compound titration LC3C” value (LC3C; [3]) was 96.2 and 100.8, the “compound titration LC3C” value (LC3C; log10 concentration [M] -5) was 96.2 and 98.8 and the “compound titration LC3C” value (LC3C; [4]) was 97.8 and 100.6. For the same compound, the “compound titration LC3C” value (LC3C; [5]) was 90 and 87.6, the “compound titration LC3C” value (LC3C; [6]) was 95.8 and 98.8 and the “compound titration LC3C” value (LC3C; [7]) was 98.6 and 99.4. For the same compound, the “compound titration LC3C” value (LC3C; [8]) was 79.6 and 99.8, the “compound titration LC3C” value (LC3C; [9]) was 95.2 and 97.2 and the “compound titration LC3C” value (LC3C; [10]) was 99 and 100.4. The “compound titration LC3A (displacement curve, FP signal)” value (“compound titration LC3A” for short) (LC3A; [1]) was 94.4737 and 100, the “compound titration LC3A” value (LC3A; [2]) was 97.6316 and 101.053 and the “compound titration LC3A” value (LC3A; [3]) was 101.579 and 103.947. The “compound titration LC3A” value (LC3A; log10 concentration [M] -5) was 101.842 and 104.737, the “compound titration LC3A” value (LC3A; [4]) was 100.789 and 103.421 and the “compound titration LC3A” value (LC3A; [5]) was 102.895 and 93.1579. The “compound titration LC3A” value (LC3A; [6]) was 105 and 102.368, the “compound titration LC3A” value (LC3A; [7]) was 102.368 and 100 and the “compound titration LC3A” value (LC3A; [8]) was 104.211 and 92.8947. For the same compound, the “compound titration LC3A” value (LC3A; [9]) was 101.579 and 94.2105 and the “compound titration LC3A” value (LC3A; [10]) was 105 and 96.5789.
